How the values were obtained:
[1] = system: Erysiphe graminis f. sp. tritici; assay: Erysiphe graminis f. sp. tritici (wheat powdery mildew), wheat leaf segments, preventive; assay type: in vivo; conditions: Blumeria graminis, foliar, 168 h, 7 dpi, compared to untreated control
Procedure: (§1) Wheat leaf segments are placed on agar in multiwell plates (24-well format) and sprayed with test solutions. After drying, the leaf disks are inoculated with spores of the fungus. After appropriate incubation the activity of a compound is assessed 7 dpi (days post inoculation) as preventive fungicidal activity.

Pyricularia oryzae = assay: whole plant or invertebrate; assay type: in vivo; conditions: foliar, 120 h, read-out: control of Pyricularia oryzae
Mycosphaerella arachidis = Mycosphaerella arachidis syn. Cercospora arachidicola (brown leaf spot of peanut), liquid culture growth inhibition; assay type: cell-based; conditions: nutrient broth (PDB), approximately 5-6 days, photometric at 620 nm, compared to untreated control
Procedure: (§2) Conidia of the fungus from cryogenic storage were directly mixed into nutrient broth (PDB potato dextrose broth). A DMSO solution of the test compounds was placed into a microtiter plate (96-well format) and the nutrient broth containing the fungal spores was added to it. The test plates were incubated at 24° C. and the inhibition of growth was determined photometrically after approximately 5-6 5 days at 620 nm.

Phytophthora infestans = assay: whole plant or invertebrate; assay type: in vivo; conditions: in Solanum lycopersicum, foliar, 96 h, read-out: control of Phytophthora infestans
Glomerella lagenarium = Glomerella lagenarium syn. Colletotrichum lagenarium (anthracnose of cucurbits), liquid culture growth inhibition; assay type: cell-based; conditions: Colletotrichum orbiculare, nutrient broth (PDB), 72 hrs, photometric at 620 nm, compared to untreated control
Procedure: as §2, with “Glomerella lagenarium Syn. Colletotrichum lagenarium (Anthracnose of Cucurbits): Conidia” for “Conidia”, “72 hrs” for “approximately 5-6 5 days”, “nm. […]” for “nm.”

Plasmopara viticola = Plasmopara viticola (downy mildew of grapevine), grape vine leaf disks, preventive; assay type: in vivo; conditions: foliar, 168 h, 7 dpi, compared to untreated control
Procedure: as §1, with “Grape vine” for “Wheat”, “disks” for “segments”, “a spore suspension” for “spores”, “after” for “post”

[2] = system: Puccinia recondita f. sp. tritici; assay: Puccinia recondita (brown rust), preventative, wheat leaf segments; assay type: in vivo; conditions: foliar, 192 h, 8 dpi, compared to untreated control
Procedure: as §1, with “segments” for “disks”, “a spore suspension” for “spores”, “8” for “7”, “after” for “post”, “preventative” for “preventive”

Monographella nivalis = Monographella nivalis syn. Microdochium nivale (snow mould, foot rot of cereals), liquid culture growth inhibition; assay type: cell-based; conditions: nutrient broth (PDB), 72 hrs, photometric at 620 nm, compared to untreated control
Procedure: as §2, with “72 hrs” for “approximately 5-6 5 days”, “nm. […] Cercospora arachidicola (Brown Leaf Spot of Peanut): […]” for “nm.”

[3] = system: Puccinia recondita f. sp. tritici; assay: Puccinia recondita (brown rust), curative, wheat leaf segments; assay type: in vivo; conditions: foliar, 192 h, sprayed 1 day after inoculation, 8 dpi, compared to untreated control
Procedure: Wheat leaf segments are placed on agar in multiwell plates (24-well format). The leaf segments are inoculated with a spore suspension of the fungus and sprayed with test solutions 1 day after inoculation. After appropriate incubation the activity of a compound is assessed 8 dpi (days after inoculation) as curative fungicidal activity.

Phakopsora pachyrhizi = Phakopsora pachyrhizi (soybean rust), soybean leaf disks, preventive; assay type: in vivo; conditions: foliar, 288 h, approx. 12 dpi, compared to untreated control
Procedure: as §1, with “Soybean” for “Wheat”, “disks” for “segments”, “a spore suspension” for “spores”, “approx. 12” for “7”, “after” for “post”

Alternaria solani = Alternaria solani (early blight of tomatoes), tomato leaf disks; assay type: in vivo; conditions: foliar, inoculated 2 days after application, compared to untreated control
Procedure: Alternaria solani (Early Blight of Tomatoes) Tomato leaf disks are placed on agar in multiwell plates (24-well format) and sprayed with the formulated test compound diluted in water. The leaf disks are inoculated with a spore suspension of the fungus 2 days after application. The inoculated leaf disks are incubated at 23° C./21° C.

CO/C=C(\Oc1cc(C2CC2C2CC2)ccc1C)C(=O)OC (stereo not shown) [E.7, methyl (Z)-2-[5-(2-cyclopropylcyclopropyl)-2-methyl-phenoxy]-3-methoxy-prop-2-enoate]
≥ 80%: pest or weed control at 200 ppm [1] | pest or weed control at 200 ppm (Pyricularia oryzae) | inhibition of growth at 20 ppm (Mycosphaerella arachidis) | pest or weed control at 200 ppm (Phytophthora infestans) | inhibition of growth at 20 ppm (Glomerella lagenarium) | pest or weed control at 200 ppm (Plasmopara viticola) | pest or weed control at 200 ppm [2] | inhibition of growth at 20 ppm (Monographella nivalis) | pest or weed control at 200 ppm [3]

CO/C=C(\Oc1cc(C2CCCCC2)ccc1Cl)C(=O)OC [E.9, methyl (Z)-2-(2-chloro-5-cyclohexyl-phenoxy)-3-methoxy-prop-2-enoate]
≥ 80%: pest or weed control at 200 ppm [1] | inhibition of growth at 20 ppm (Mycosphaerella arachidis) | pest or weed control at 200 ppm (Phytophthora infestans) | inhibition of growth at 20 ppm (Glomerella lagenarium) | pest or weed control at 200 ppm (Plasmopara viticola) | pest or weed control at 200 ppm [2] | inhibition of growth at 20 ppm (Monographella nivalis)

CO/C=C(\Oc1cc(C2CC(C)(C)CCC2=O)ccc1C)C(=O)OC (stereo not shown) [E.5, methyl (Z)-2-[5-(5,5-dimethyl-2-oxo-cyclohexyl)-2-methyl-phenoxy]-3-methoxy-prop-2-enoate]
≥ 80%: pest or weed control at 200 ppm [1] | pest or weed control at 200 ppm (Phytophthora infestans) | pest or weed control at 200 ppm (Plasmopara viticola) | pest or weed control at 200 ppm [2]

CO/C=C(\Oc1cc(C2CC2)ccc1C)C(=O)OC [E.14, methyl (Z)-2-(5-cyclopropy1-2-methyl-phenoxy)-3-methoxy-prop-2-enoate]
≥ 80%: pest or weed control at 200 ppm [1] | inhibition of growth at 20 ppm (Mycosphaerella arachidis) | inhibition of growth at 20 ppm (Glomerella lagenarium) | pest or weed control at 200 ppm (Plasmopara viticola) | pest or weed control at 200 ppm [2] | inhibition of growth at 20 ppm (Monographella nivalis)
≥ 70%: pest or weed control at 60 ppm (Phakopsora pachyrhizi)

CO/C=C(\Oc1cc(C2=CCCCC2)ccc1C)C(=O)OC [F.2, methyl (Z)-2-[5-(cyclohexen-1-yl)-2-methyl-phenoxy]-3-methoxy-prop-2-enoate]
≥ 70%: pest or weed control at 60 ppm (Phakopsora pachyrhizi)
≥ 80%: pest or weed control at 200 ppm [1] | inhibition of growth at 20 ppm (Glomerella lagenarium) | pest or weed control at 200 ppm (Plasmopara viticola) | pest or weed control at 200 ppm [2] | pest or weed control at 200 ppm [3]

CO/C=C(\Oc1cc(C2CCC(OC(F)F)CC2)ccc1C)C(=O)OC (stereo not shown) [E.23, methyl (Z)-2-[5-[4-(difluoromethoxy)cyclohexyl]-2-methyl-phenoxy]-3-methoxy-prop-2-enoate]
≥ 80%: pest or weed control at 200 ppm [1] | pest or weed control at 200 ppm (Pyricularia oryzae) | inhibition of growth at 20 ppm (Mycosphaerella arachidis) | pest or weed control at 200 ppm (Alternaria solani) | inhibition of growth at 20 ppm (Glomerella lagenarium) | pest or weed control at 200 ppm (Plasmopara viticola) | pest or weed control at 200 ppm [2] | inhibition of growth at 20 ppm (Monographella nivalis)

CO/C=C(\Oc1cc(C2=CCCC2)ccc1C)C(=O)OC [F.4, methyl (Z)-2-[5-(cyclopenten-l-yI)-2-methyl-phenoxy]-3-methoxy-prop-2-enoate]
≥ 80%: pest or weed control at 200 ppm [1] | inhibition of growth at 20 ppm (Mycosphaerella arachidis) | inhibition of growth at 20 ppm (Glomerella lagenarium) | pest or weed control at 200 ppm (Plasmopara viticola) | pest or weed control at 200 ppm [2] | inhibition of growth at 20 ppm (Monographella nivalis)
≥ 70%: pest or weed control at 60 ppm (Phakopsora pachyrhizi)

CO/C=C(\Oc1cc(C2CCC(=NOC)CC2)ccc1C)C(=O)OC (stereo not shown) [E.20, methyl (Z)-3-methoxy-2-[5-(4-methoxyimino-cyclohexyl)-2-methyl-phenoxy]prop-2-enoate]
≥ 70%: pest or weed control at 60 ppm (Phakopsora pachyrhizi)
≥ 80%: pest or weed control at 200 ppm [1] | pest or weed control at 200 ppm (Pyricularia oryzae) | inhibition of growth at 20 ppm (Mycosphaerella arachidis) | pest or weed control at 200 ppm (Alternaria solani) | inhibition of growth at 20 ppm (Glomerella lagenarium) | pest or weed control at 200 ppm (Plasmopara viticola) | pest or weed control at 200 ppm [2] | inhibition of growth at 20 ppm (Monographella nivalis) | pest or weed control at 200 ppm [3]

CCON=C1CCC(c2ccc(C)c(O/C(=C\OC)C(=O)OC)c2)CC1 (stereo not shown) [E.21, methyl (Z)-2-[5-(4-ethoxyiminocyclohexyl)-2-methyl-phenoxy]-3-methoxy-prop-2-enoate]
≥ 80%: pest or weed control at 200 ppm [1] | pest or weed control at 200 ppm (Pyricularia oryzae) | inhibition of growth at 20 ppm (Mycosphaerella arachidis) | inhibition of growth at 20 ppm (Glomerella lagenarium) | pest or weed control at 200 ppm (Plasmopara viticola) | pest or weed control at 200 ppm [2] | inhibition of growth at 20 ppm (Monographella nivalis) | pest or weed control at 200 ppm [3]
≥ 70%: pest or weed control at 60 ppm (Phakopsora pachyrhizi)

CO/C=C(\Oc1cc(C2CCC(C(F)F)CC2)ccc1C)C(=O)OC (stereo not shown) [E.22, methyl (Z)-2-[5-[4-(difluoromethyl)cyclohexyl]-2-methyl-phenoxy]-3-methoxy-prop-2-enoate]
≥ 80%: pest or weed control at 200 ppm [1] | inhibition of growth at 20 ppm (Mycosphaerella arachidis) | pest or weed control at 200 ppm (Alternaria solani) | pest or weed control at 200 ppm (Phytophthora infestans) | inhibition of growth at 20 ppm (Glomerella lagenarium) | pest or weed control at 200 ppm (Plasmopara viticola) | pest or weed control at 200 ppm [2] | inhibition of growth at 20 ppm (Monographella nivalis)

CO/C=C(\Oc1cc(C2CCC2)ccc1C)C(=O)OC [E.12, methyl (Z)-2-(5-cyclobuty1-2-methyl-phenoxy)-3-methoxy-prop-2-enoate]
≥ 80%: pest or weed control at 200 ppm [1] | pest or weed control at 200 ppm (Pyricularia oryzae) | inhibition of growth at 20 ppm (Mycosphaerella arachidis) | inhibition of growth at 20 ppm (Glomerella lagenarium) | pest or weed control at 200 ppm (Plasmopara viticola) | pest or weed control at 200 ppm [2] | inhibition of growth at 20 ppm (Monographella nivalis) | pest or weed control at 200 ppm [3]
≥ 70%: pest or weed control at 60 ppm (Phakopsora pachyrhizi)

CO/C=C(\Oc1cc(C2=CCCCC2)c(F)cc1C)C(=O)OC [F.6, methyl (Z)-2-[5-(cyclohexen-1-yl)-4-fluoro-2-methyl-phenoxy]-3-methoxy-prop-2-enoate]
≥ 70%: pest or weed control at 60 ppm (Phakopsora pachyrhizi)
≥ 80%: pest or weed control at 200 ppm [1] | inhibition of growth at 20 ppm (Mycosphaerella arachidis) | inhibition of growth at 20 ppm (Glomerella lagenarium) | pest or weed control at 200 ppm (Plasmopara viticola) | pest or weed control at 200 ppm [2] | inhibition of growth at 20 ppm (Monographella nivalis) | pest or weed control at 200 ppm [3]

CO/C=C(\Oc1cc(C2CCC(C)(C)CC2)ccc1C)C(=O)OC [E.2, methyl (Z)-2-[5-(4,4-dimethylcyclohexyl)-2-methyl-phenoxy]-3-methoxy-prop-2-enoate]
≥ 80%: pest or weed control at 200 ppm [1] | inhibition of growth at 20 ppm (Mycosphaerella arachidis) | pest or weed control at 200 ppm (Phytophthora infestans) | pest or weed control at 200 ppm (Plasmopara viticola) | pest or weed control at 200 ppm [2] | inhibition of growth at 20 ppm (Monographella nivalis)

CO/C=C(\Oc1cc(C2=CC(C)(C)CCC2=O)ccc1C)C(=O)OC [F.1, methyl (Z)-2-[5-(3,3-dimethyl-6-oxo-cyclohexen-1-yl)-2-methyl-phenoxy]-3-methoxy-prop-2-enoate]
≥ 80%: pest or weed control at 200 ppm [1] | pest or weed control at 200 ppm (Pyricularia oryzae) | pest or weed control at 200 ppm (Alternaria solani) | inhibition of growth at 20 ppm (Glomerella lagenarium) | pest or weed control at 200 ppm (Plasmopara viticola) | pest or weed control at 200 ppm [2]

CO/C=C(\Oc1cc(C2=CCC(C(F)F)CC2)ccc1C)C(=O)OC (stereo not shown) [F.7, methyl (Z)-2-[5-[4-(difluoromethyl)cyclohexen-1-yl]-2-methyl-phenoxy]-3-methoxy-prop-2-enoate]
≥ 80%: pest or weed control at 200 ppm [1] | inhibition of growth at 20 ppm (Mycosphaerella arachidis) | pest or weed control at 200 ppm (Alternaria solani) | inhibition of growth at 20 ppm (Glomerella lagenarium) | pest or weed control at 200 ppm (Plasmopara viticola) | pest or weed control at 200 ppm [2] | inhibition of growth at 20 ppm (Monographella nivalis) | pest or weed control at 200 ppm [3]

Source: US12262710B2, “Fungicidal compounds” (SYNGENTA CROP PROTECTION AG, priority 2019, dated 2025)
